# Data as given in PubChem BioAssay AID1963853 (Molecular Pharmacology Branch, DTP, NCI, 2024).
# Tested on: 266295-075-R-J1-PDC spheroid viability
# Test: Anticancer human tumor 266295-075-R-J1-PDC patient-derived head and neck squamous carcinoma cell line growth inhibition [POLQ]
# Conditions: spheroids with HUVEC and MSC; for IC50: curve of first compound; for viability, T/C: stronger effect = lower value
# Summary of the method: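 Growth inhibition in 3D: complex spheroids (tumor PDC, HUVEC, MSC) treated with POLQ inhibitor combinations; where Cmax unknown, highest tested concentration 10 microM, except SN-38 at 1 microM.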
# [1] = second compound 0.0316 µM, first compound 0.0316 µM
# [2] = second compound 0.0316 µM, first compound 0.1 µM
# [3] = second compound 0.0316 µM, first compound 0.316 µM
# [4] = second compound 0.0316 µM, first compound 1 µM
# [5] = second compound 0.0316 µM, first compound 3.16 µM
# [6] = second compound 0.0316 µM, first compound 10 µM
# [7] = second compound 0.1 µM, first compound 0.0316 µM
# [8] = second compound 0.1 µM, first compound 0.1 µM
# [9] = second compound 0.1 µM, first compound 0.316 µM
# [10] = second compound 0.1 µM, first compound 1 µM
# [11] = second compound 0.1 µM, first compound 3.16 µM
# [12] = second compound 0.1 µM, first compound 10 µM
# [13] = second compound 0.316 µM, first compound 0.0316 µM
# [14] = second compound 0.316 µM, first compound 0.1 µM
# [15] = second compound 0.316 µM, first compound 0.316 µM
# [16] = second compound 0.316 µM, first compound 1 µM
# [17] = second compound 0.316 µM, first compound 3.16 µM
# [18] = second compound 0.316 µM, first compound 10 µM
# [19] = second compound 1 µM, first compound 0.0316 µM
# [20] = second compound 1 µM, first compound 0.1 µM
# [21] = second compound 1 µM, first compound 0.316 µM
# [22] = second compound 1 µM, first compound 1 µM
# [23] = second compound 1 µM, first compound 3.16 µM
# [24] = second compound 1 µM, first compound 10 µM
# [25] = second compound 3.16 µM, first compound 0.0316 µM
# [26] = second compound 3.16 µM, first compound 0.1 µM
# [27] = second compound 3.16 µM, first compound 0.316 µM
# [28] = second compound 3.16 µM, first compound 1 µM
# [29] = second compound 3.16 µM, first compound 3.16 µM
# [30] = second compound 3.16 µM, first compound 10 µM
# [31] = second compound 10 µM, first compound 0.0316 µM
# [32] = second compound 10 µM, first compound 0.1 µM
# [33] = second compound 10 µM, first compound 0.316 µM
# [34] = second compound 10 µM, first compound 1 µM
# [35] = second compound 10 µM, first compound 3.16 µM
# [36] = second compound 10 µM, first compound 10 µM
# 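Note: spheroids exposed to compounds for seven days before readout.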
smiles,measurement,setting,value
C#Cc1c(F)ccc2cc(O)cc(-c3ncc4c(N5CC6CCC(C5)N6)nc(OCC56CCCN5CC(F)C6)nc4c3F)c12 (stereo unspecified) + Nc1ccc(C#CCN(C(=O)Cc2ncc(C(F)(F)F)cc2C(F)(F)F)c2ccc(F)cc2)nn1,IC50,second compound 0.0316 µM,> 10 µM
same,IC50,second compound 0.1 µM,7.4 µM
same,IC50,second compound 0.316 µM,8.3 µM
same,IC50,second compound 1 µM,> 10 µM
same,IC50,second compound 3.16 µM,> 10 µM
same,IC50,second compound 10 µM,> 10 µM
same,"viability, T/C",[1],86.8%
same,"viability, T/C",[2],89%
same,"viability, T/C",[3],82.9%
same,"viability, T/C",[4],71.6%
same,"viability, T/C",[5],60.8%
same,"viability, T/C",[6],50%
same,"viability, T/C",[7],90.2%
same,"viability, T/C",[8],103%
same,"viability, T/C",[9],75.2%
same,"viability, T/C",[10],81%
same,"viability, T/C",[11],67%
same,"viability, T/C",[12],43.7%
same,"viability, T/C",[13],89.2%
same,"viability, T/C",[14],71.7%
same,"viability, T/C",[15],63%
same,"viability, T/C",[16],84.1%
same,"viability, T/C",[17],60.7%
same,"viability, T/C",[18],47.3%
same,"viability, T/C",[19],114%
same,"viability, T/C",[20],84%
same,"viability, T/C",[21],70.7%
same,"viability, T/C",[22],68.3%
same,"viability, T/C",[23],56.9%
same,"viability, T/C",[24],54.7%
same,"viability, T/C",[25],80.8%
same,"viability, T/C",[26],90.6%
same,"viability, T/C",[27],74.7%
same,"viability, T/C",[28],68.7%
same,"viability, T/C",[29],71.6%
same,"viability, T/C",[30],64.1%
same,"viability, T/C",[31],91.8%
same,"viability, T/C",[32],73.9%
same,"viability, T/C",[33],82.5%
same,"viability, T/C",[34],63.8%
same,"viability, T/C",[35],64.1%
same,"viability, T/C",[36],52.4%
COc1cc2cc(C(=O)CCC(=O)O)sc2cc1OC + Cc1cccc(N(C)C(=O)C2C(O)CCN2c2nc(C)cc(C(F)(F)F)c2C#N)c1,IC50,second compound 0.0316 µM,> 10 µM
same,IC50,second compound 0.1 µM,> 10 µM
same,IC50,second compound 0.316 µM,> 10 µM
same,IC50,second compound 1 µM,> 10 µM
same,IC50,second compound 3.16 µM,> 10 µM
same,IC50,second compound 10 µM,> 10 µM
same,"viability, T/C",[1],118%
same,"viability, T/C",[2],112%
same,"viability, T/C",[3],90%
same,"viability, T/C",[4],117%
same,"viability, T/C",[5],95.7%
same,"viability, T/C",[6],96%
same,"viability, T/C",[7],113%
same,"viability, T/C",[8],103%
same,"viability, T/C",[9],82.9%
same,"viability, T/C",[10],111%
same,"viability, T/C",[11],115%
same,"viability, T/C",[12],115%
same,"viability, T/C",[13],134%
same,"viability, T/C",[14],112%
same,"viability, T/C",[15],92.6%
same,"viability, T/C",[16],114%
same,"viability, T/C",[17],87%
same,"viability, T/C",[18],84.8%
same,"viability, T/C",[19],106%
same,"viability, T/C",[20],87.2%
same,"viability, T/C",[21],126%
same,"viability, T/C",[22],104%
same,"viability, T/C",[23],110%
same,"viability, T/C",[24],80.3%
same,"viability, T/C",[25],101%
same,"viability, T/C",[26],112%
same,"viability, T/C",[27],116%
same,"viability, T/C",[28],109%
same,"viability, T/C",[29],98.2%
same,"viability, T/C",[30],91.3%
same,"viability, T/C",[31],97.2%
same,"viability, T/C",[32],109%
same,"viability, T/C",[33],102%
same,"viability, T/C",[34],104%
same,"viability, T/C",[35],109%
same,"viability, T/C",[36],89.2%
CCc1c2c(nc3ccc(O)cc13)-c1cc3c(c(=O)n1C2)COC(=O)[C@]3(O)CC + Cc1cccc(N(C)C(=O)C2C(O)CCN2c2nc(C)cc(C(F)(F)F)c2C#N)c1,IC50,second compound 0.0316 µM,> 1 µM
same,IC50,second compound 0.1 µM,> 1 µM
same,IC50,second compound 0.316 µM,> 1 µM
same,IC50,second compound 1 µM,> 1 µM
same,IC50,second compound 3.16 µM,> 1 µM
same,IC50,second compound 10 µM,> 1 µM
same,"viability, T/C","second compound 0.0316 µM, first compound 0.00316 µM",90.2%
same,"viability, T/C","second compound 0.0316 µM, first compound 0.01 µM",81.4%
same,"viability, T/C",[1],80.4%
same,"viability, T/C",[2],85.8%
same,"viability, T/C",[3],113%
same,"viability, T/C",[4],76.7%
same,"viability, T/C","second compound 0.1 µM, first compound 0.00316 µM",90.3%
same,"viability, T/C","second compound 0.1 µM, first compound 0.01 µM",78.5%
same,"viability, T/C",[7],90.4%
same,"viability, T/C",[8],81.9%
same,"viability, T/C",[9],110%
same,"viability, T/C",[10],72.9%
same,"viability, T/C","second compound 0.316 µM, first compound 0.00316 µM",85.8%
same,"viability, T/C","second compound 0.316 µM, first compound 0.01 µM",84.1%
same,"viability, T/C",[13],87.2%
same,"viability, T/C",[14],87%
same,"viability, T/C",[15],92.5%
same,"viability, T/C",[16],75.1%
same,"viability, T/C","second compound 1 µM, first compound 0.00316 µM",91.5%
same,"viability, T/C","second compound 1 µM, first compound 0.01 µM",86.7%
same,"viability, T/C",[19],77%
same,"viability, T/C",[20],84.3%
same,"viability, T/C",[21],92.7%
same,"viability, T/C",[22],75.5%
same,"viability, T/C","second compound 3.16 µM, first compound 0.00316 µM",78.5%
same,"viability, T/C","second compound 3.16 µM, first compound 0.01 µM",74.1%
same,"viability, T/C",[25],79.9%
same,"viability, T/C",[26],89%
same,"viability, T/C",[27],107%
same,"viability, T/C",[28],75.2%
same,"viability, T/C","second compound 10 µM, first compound 0.00316 µM",92.8%
same,"viability, T/C","second compound 10 µM, first compound 0.01 µM",92%
same,"viability, T/C",[31],82.9%
same,"viability, T/C",[32],85.7%
same,"viability, T/C",[33],87.8%
same,"viability, T/C",[34],55.6%
